According to US20090282496A1, “Androgen Receptor Related Methods for Treating Bladder Cancer” (University of Rochester Medical Center, priority 2008, published 2009):
Marks after values point to notes of the source that are not given here.

Tests used:
[1] = test system: BBN-induced bladder cancer; conditions: rats; castration had a much stronger effect; cited from earlier work
[2] = test system: TCC-SUP xenograft tumors; assay: TCC-SUP mouse xenograft, tumor progression study; format: in vivo, male athymic nude mouse
From the text: Total RNA from mouse bladder and xenograft tumor tissues and cultured cells was extracted by the acid guanidinium-phenol-chloroform method as previously described (Miyamoto et al., Cancer, 75:2565-70 (1995)) or by using Trizol reagent (Life Science). Isolated RNAs were reverse transcribed to cDNA using random hexamers as described (Miyamoto et al., Cancer, 75:2565-70 (1995) and Miyoshi et al., Prostate, 56:280-6 (2003)), and amplified by PCR using a primer set specific for the AR gene (Miyoshi et al., Prostate, 56:280-6 (2003)). Using the iCycler (Bio-Rad) and the methods previously described by Miyoshi et al., Prostate, 56:280-6 (2003), real-time quantitative PCR analysis of AR, basic fibroblast growth factor (bFGF), vascular endothelial growth factor (VEGF), and matrix metalloproteinase-9 (MMP-9) was performed on the tissue samples from mouse xenograft tumors. The following PCR primers were designed using Beacon Designer 2 (Premier Biosoft): bFGF: 5′-[…]-3′ (SEQ ID NO. 1) and 5′-[…]-3′ (SEQ ID NO. 2), VEGF: 5′-[…]-3′ (SEQ ID NO. 3) and 5′-[…]-3′ (SEQ ID NO. 4), and MMP-9: 5′-[…]-3′ (SEQ ID NO. 5) and 5′-[…]-3′ (SEQ ID NO. 6). β-actin was used as an internal control.
(§1) Bladder cancer cell lines (TCC-SUP, UMUC3, and 5637) were harvested, washed twice with PBS, and resuspended in Matrigel (BD Bioscience) at a final concentration of 1×10^7 cells/mL. Cells (1×10^6 cells in 100 μl per site) were then injected subcutaneously into the right and left flanks of 6-week-old male athymic nude mouse. Treatment (castration or sham surgery, flutamide [0.5 mg/mouse] or placebo pellet injection, and the recently developed anti-AR molecule ASC-J9 (50 mg/Kg or DMSO injection) (Ohtsu et al., J. Med. Chem., 45:5037-42 (2002)) was initiated either (1) at the same time as tumor cell injection (for tumor incidence studies, n=8 mice in each group) or (2) when the sizes of all tumors reached 40 mm^3 (for tumor progression studies, n=12 tumors from 6 mice in each group). Hormonal pellets were replaced as required (every 90 days). Tumor weight was calculated by the following formula: tumor weight (mg)=tumor length (mm)×[tumor width (mm)]^2×0.5 (Geram et al., Cancer Chemother. Rep., 3:47-52 (1972)). Using calipers, each tumor was measured twice a week until either the tumor size reached 40 mm^3 (for tumor incidence study) (Chen et al., Nat. Med., 10:33-9 (2004)), or until the tumor exceeded 10% of the animal's body weight, at which time the mouse was killed (for tumor progression study).

[3] = test system: TCC-SUP and UMUC3 stable sublines (control-siRNA, AR-siRNA); assay: Tumor incidence (tumorigenicity) study of control-siRNA and AR-siRNA sublines in nude mice; format: in vivo, male athymic nude mouse
From the text: The reporter plasmids [mouse mammary tumor virus (MMTV)-luciferase (Luc) and (ARE)4-Luc (provided by Dr. Michael L. Lu at Harvard Medical School)] as well as a retrovirus vector pMSCV/U6 (Clontech)-AR-siRNA were described in previous studies (Miyamoto et al., Int. J. Cancer, 117:866-72 (2005) and Yeh et al., J. Exp. Med. 198:1899-908 (2003)). Using SuperFect reagent (Qiagen), stable cell lines expressing the AR-siRNA were established by transfecting pMSCV/U6-AR-siRNA into Phi-NX packaging retrovirus producer cells (developed by the Nolan Lab at Stanford University). The target cells (i.e., TCC-SUP, UMUC3, and 5637) were then cultured in the presence of the viral supernatant, and infected cells were selected with puromycin (Sigma).
as §1

[4] = test system: AR-negative 5637 xenograft tumors; assay: 5637 mouse xenograft, tumor progression study; format: in vivo, male athymic nude mouse; conditions: androgen deprivation therapy (castration and/or flutamide) at 12 weeks
Method: Bladder cancer cell lines (TCC-SUP, UMUC3, and 5637) were harvested, washed twice with PBS, and resuspended in Matrigel (BD Bioscience) at a final concentration of 1×10^7 cells/mL. Cells (1×10^6 cells in 100 μl per site) were then injected subcutaneously into the right and left flanks of 6-week-old male athymic nude mouse. […] Med. […] Hormonal pellets were replaced as required (every 90 days). Tumor weight was calculated by the following formula: tumor weight (mg)=tumor length (mm)×[tumor width (mm)]^2×0.5 (Geram et al., Cancer Chemother. Rep., 3:47-52 (1972)).

[5] = test system: BBN-induced bladder tumors; conditions: wild-type mice, drinking water with BBN at 0.01-0.05% for 10-20 weeks; previous studies; cited from earlier work
[6] = test system: BBN-induced bladder tumors; conditions: mouse, in vivo
Method: (§2) Animal care was provided in accordance with institutional guidelines. Five to six weeks old ARKO mice (male: n=48; female: n=24) and their wild-type littermates (male: n=48; female: n=24) were supplied ad libitum with tap water containing 0.05% BBN (TCI America) in opaque bottles for 12 weeks, and thereafter with tap water without BBN. To estimate BBN intake, the drinking water was prepared fresh twice a week, and consumption was recorded. […] Before starting BBN treatment, wild-type male mice received surgical castration (n=24) or sham surgery (n=24) at 5 weeks of age. […] Every 90 days, these pellets were replaced. At 20 (n=4 in each group), 30 (n=8 in each group), or 40 (n=12 in each group) weeks of age, the mice were killed by administration of pentobarbital followed by rapid cervical dislocation. Urinary tract specimens were harvested. These specimens were preserved in phosphate-buffered 10% formalin, embedded in paraffin, sectioned, stained with hematoxylin and eosin, and examined microscopically to identify carcinoma or other pathological changes. Paraffin-embedded sections were also used for immunohistochemical analysis. Part of each specimen was rapidly frozen in liquid nitrogen and stored at −80° C. for subsequent RNA analysis.
(§3) Sections (5-7 μm thick) from paraffin-embedded mouse urinary tract tissue and xenograft tumors (see below) were deparaffinized in xylene and rehydrated in a graded ethanol series. Sections were then incubated in 3% hydrogen peroxide to block endogenous peroxidase, with a protein blocking solution containing preimmune rabbit serum, and finally with a 1:500 dilution of primary antibody (rabbit polyclonal anti-proliferating cell nuclear antigen (PCNA) (Santa Cruz). Samples were incubated with peroxidase-conjugated anti-rabbit IgG. The slides were rinsed with PBS, incubated with diaminobenzidine, and finally counterstained with hematoxylin. The TUNEL assay was performed on additional rehydrated sections from paraffin-embedded mouse urinary tract tissue and xenograft tumor using the Fluorescein-FragEL DNA Fragmentation Detection kit (Calbiochem), according to the manufacturer's instructions, followed by counterstaining for DNA with DAPI. The percentage of apoptotic cells was determined by fluorescence microscopy. The percentage of PCNA- and TUNEL-positive cells in 1000 cells counted on each specimen were used to determine the amount of cell proliferation and apoptotic indices, respectively.

[7] = test system: AR-negative bladder cancer cell lines (5637); assay: Cell proliferation assay (MTT), AR-negative bladder cancer cell lines; format: cell-based, human; conditions: AR-negative 5637 subline that expresses AR-siRNA, 6 days
[8] = test system: TCC-SUP cells; assay: Cell proliferation assay (MTT), TCC-SUP; format: cell-based, human; conditions: 6 days; for effect on growth: TCC-SUP subline that expresses AR-siRNA
[9] = test system: UMUC3 cells; assay: Cell proliferation assay (MTT), UMUC3; format: cell-based, human; conditions: 6 days; for effect on growth: UMUC3 subline that expresses AR-siRNA
[10] = test system: BBN-induced bladder tumors; assay: BBN-induced mouse bladder cancer model (tumor incidence; PCNA and TUNEL indexes of tumors); conditions: for Carcinoma, No. (%) / Preneoplastic lesions, No. (%): 0.05% BBN
Method: as §2, §3

[11] = target: T1, AR (Homo sapiens, UniProt P10275); conditions: TCC-SUP and UMUC3 cells, MMTV-Luc, 24 h
T1 sequence (P10275 1-920): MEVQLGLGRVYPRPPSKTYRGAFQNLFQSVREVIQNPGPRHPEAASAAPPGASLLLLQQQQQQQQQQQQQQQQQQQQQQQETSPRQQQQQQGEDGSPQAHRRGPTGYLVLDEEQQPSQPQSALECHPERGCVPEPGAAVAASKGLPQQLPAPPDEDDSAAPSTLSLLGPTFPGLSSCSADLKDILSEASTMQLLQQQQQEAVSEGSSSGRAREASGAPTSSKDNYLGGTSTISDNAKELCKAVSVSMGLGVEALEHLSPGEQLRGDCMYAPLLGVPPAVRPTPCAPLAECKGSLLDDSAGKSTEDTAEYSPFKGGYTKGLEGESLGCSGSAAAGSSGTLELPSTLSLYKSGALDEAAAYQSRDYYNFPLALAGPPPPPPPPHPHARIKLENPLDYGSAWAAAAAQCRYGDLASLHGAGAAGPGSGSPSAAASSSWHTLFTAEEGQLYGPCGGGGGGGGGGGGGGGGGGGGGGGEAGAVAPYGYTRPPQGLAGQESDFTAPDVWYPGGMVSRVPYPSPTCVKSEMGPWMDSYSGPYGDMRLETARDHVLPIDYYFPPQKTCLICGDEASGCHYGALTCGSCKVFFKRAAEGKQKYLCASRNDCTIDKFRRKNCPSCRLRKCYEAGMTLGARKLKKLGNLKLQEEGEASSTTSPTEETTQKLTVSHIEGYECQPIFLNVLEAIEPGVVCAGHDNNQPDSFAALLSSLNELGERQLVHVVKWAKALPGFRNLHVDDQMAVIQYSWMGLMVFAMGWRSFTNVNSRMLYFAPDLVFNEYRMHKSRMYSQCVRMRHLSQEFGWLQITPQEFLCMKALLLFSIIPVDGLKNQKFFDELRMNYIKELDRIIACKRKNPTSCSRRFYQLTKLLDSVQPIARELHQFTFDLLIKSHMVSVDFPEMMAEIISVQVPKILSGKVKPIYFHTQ
Method: Cell transfections and luciferase assays were performed as previously described (Miyamoto et al., Int. J. Cancer, 117:866-72 (2005) and Miyamoto et al., Proc. Natl. Acad. Sci. USA, 100:4440-4 (2003)). Briefly, bladder cancer cells at a density of 50-60% confluence in 12-well tissue culture plates were transfected with 1.5 μg of plasmid DNA using SuperFect transfection reagent (Qiagen) according to the manufacturer's instructions. […] Cells were harvested, lysed, and assayed for luciferase activity. A Dual-Luciferase Reporter Assay kit (Promega) and luminometer (TD-20/20, Turner BioSystems) were used to determine the level of luciferase activity in the cell extracts.

[12] = harvested TCC-SUP tumors, real-time RT-PCR
[13] = ARKO male mice + DHT pellet 1.5 mg/mouse/90 days, age 20 weeks
[14] = ARKO male mice + DHT pellet, age 30 weeks
[15] = ARKO male mice + DHT pellet, age 40 weeks
[16] = male ARKO mice treated with BBN and DHT, 40 weeks
[17] = harvested TCC-SUP tumors, ASC-J9 50 mg/Kg

## CC(C)(C)NC(=O)[C@H]1CC[C@H]2[C@@H]3CC[C@H]4NC(=O)C=C[C@]4(C)[C@H]3CC[C@]12C [finasteride, Finasteride]
[1]
  development of BBN-induced bladder cancer: only slightly suppressed

## CC(C)C(=O)Nc1ccc([N+](=O)[O-])c(C(F)(F)F)c1 [flutamide, Flutamide]
[2]; castration and/or antiandrogen (flutamide pellet), at 16 weeks
  tumor size vs. control mice: statistically significantly smaller
[2]; [12]
  levels of angiogenic factors and metastasis-related factors (bFGF, VEGF, MMP-9) in tumors: reduced
[3]; androgen deprivation (castration or flutamide pellet)
  tumorigenicity of AR-expressing (control-siRNA-transfected) bladder cancer: suppressed tumorigenicity
[3]; castration and flutamide treatment
  development of AR-siRNA-expressing tumors: little effect
[4]
  reduction in tumor size: up to 12%

## CCCCN(CCCCO)N=O [BBN, N-butyl-N-(4-hydroxybutyl)nitrosamine]
[5]
  frequency of bladder carcinomas by 40 weeks: 30-100%
[6]
  hyperplasia in the bladder, incidence: 17%
  invasive carcinoma incidence: 50%
  preneoplastic bladder lesions incidence: 50-67%
  preneoplastic lesions (hyperplasias or papillomas) incidence: 75%

## C[C@]12CCC(=O)C[C@@H]1CC[C@@H]1[C@@H]2CC[C@]2(C)[C@@H](O)CC[C@@H]12 [DHT, dihydrotestosterone]
[7]
  effect on growth: did not affect the growth
[8]
  effect on growth: did not affect the growth
[8]; TCC-SUP, 1 nM DHT, vs. ETOH
  increase of cell growth: 55%
[9]; UMUC3, 1 nM DHT, vs. ETOH
  increase of cell growth: 45%
[9]
  effect on growth: did not affect the growth
[10]; [13]
  Carcinoma, No. (%): 0 (0) No. (%)
  Preneoplastic lesions, No. (%): 0 (0) No. (%)
[10]; [14]
  Carcinoma, No. (%): 1 (0)∵ No. (%)
  Preneoplastic lesions, No. (%): 3 (38) No. (%)
[10]; [15]
  Carcinoma, No. (%): 3 (25)‡‡ No. (%)
  Preneoplastic lesions, No. (%): 5 (42) No. (%)
[10]; [16]
  carcinoma incidence: 25%
  preneoplastic lesions incidence: 42%

## COc1ccc(C=CC(=O)C=C(O)C=Cc2ccc(OC)c(OC)c2)cc1OC [ASC-J9, 5-hydroxy-1,7-bis(3,4-dimethoxyphenyl)-1,4,6-heptatrien-3-one]
[2]; ASC-J9 50 mg/Kg intraperitoneal every other day, over 16 weeks of treatment
  reduction in tumor size: 58%
[2]; [17]
  apoptotic index of harvested tumors: increased
  proliferation index of harvested tumors: decreased
[2]; [12]
  levels of angiogenic factors and metastasis-related factors (bFGF, VEGF, MMP-9) in tumors: reduced
[2]; harvested TCC-SUP tumors, real-time RT-PCR, ASC-J9 50 mg/Kg
  reduction of AR expression in tumors: 39%
[3]; vs. control-siRNA cells with control treatment, treatment from tumor cell implantation, tumor positive at 40 mm3
  latency of tumor formation: substantially prolonged
[8]; TCC-SUP, 1 μM ASC-J9 + 1 nM DHT
  effect on DHT-simulated growth: inhibited
[9]; UMUC3, 1 μM ASC-J9 + 1 nM DHT
  effect on DHT-simulated growth: inhibited

## CC(C)(O)C(=O)Nc1ccc([N+](=O)[O-])c(C(F)(F)F)c1 [HF, hydroxyflutamide]
[11]; 5 μM HF + 1 nM DHT
  effect on DHT-induction of luciferase: clearly inhibited
[11]; 5 μM HF alone
  agonist activity alone (luciferase): only marginal agonist activity
[7]
  effect on growth: did not affect the growth
[8]
  effect on growth: did not affect the growth
[8]; TCC-SUP, 5 μM HF + 1 nM DHT, range given for both lines
  reduction of the DHT effect on cell growth: 67-75%
[8]; control (scrambled siRNA) TCC-SUP subline, 1 nM DHT and/or 5 μM HF
  effect on cell proliferation: antagonized the DHT effect
[9]; UMUC3, 5 μM HF + 1 nM DHT, range given for both lines
  reduction of the DHT effect on cell growth: 67-75%
[9]
  effect on growth: did not affect the growth
[9]; control (scrambled siRNA) UMUC3 subline, 1 nM DHT and/or 5 μM HF
  effect on cell proliferation: antagonized the DHT effect
